Consider 23 compounds from US8372991B2, “Trisubstituted thiophenes that modulate intracellular calcium” (Calcimedica, Inc., priority 2008, dated 2013).

STIM1 and Orai1 in human embryonic kidney 293 cells (HEK293 cells), sequence (Q96D31 whole entry): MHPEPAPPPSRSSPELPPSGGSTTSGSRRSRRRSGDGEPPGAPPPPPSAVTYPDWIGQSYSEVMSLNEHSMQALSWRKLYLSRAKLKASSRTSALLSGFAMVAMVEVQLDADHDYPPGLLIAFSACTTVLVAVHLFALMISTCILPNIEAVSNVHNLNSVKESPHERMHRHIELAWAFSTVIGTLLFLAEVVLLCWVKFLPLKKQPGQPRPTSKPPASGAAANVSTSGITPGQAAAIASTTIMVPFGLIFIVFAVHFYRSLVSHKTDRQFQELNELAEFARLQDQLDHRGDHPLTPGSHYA

One assay concerns the target STIM1 and Orai1 in human embryonic kidney 293 cells (HEK293 cells) (Homo sapiens, UniProt Q96D31).
Assay: not given
To be noted: HEK293 co-expressing STIM1 and Orai1; cited from earlier work.
Turning to `NCCOB(c1ccccc1)c1ccccc1` [2-aminoethoxydiphenylborate], the “block of store-dependent Ca2+ entry” value is given as “completely blocked”.

Tested on in a further assay: not listed separately
The assay is described as follows: Fluorescence-based assay of store-operated calcium entry in Orai1/STIM1 stable cells (Table A JR251). As to conditions: Homo sapiens, 50% inhibition of Peak-Basal fluorescence signal. The class given is cell-based. How it is done: A. Fluorescence-Based Assay of Store-Operated Calcium Entry in Orai1/STIM1 Stable Cells.
Cells stably expressing recombinant human STIM1 and Orai1 were generated by transfecting a human Orai1 expression plasmid (pcDNA3.1-Orai1-cmyc) into HEK-293 cells stably overexpressing human STIM1 (Roos et al. 2005 JCB 169(3): 435-445). Colonies of cells stably expressing both STIM1 and Orai1 proteins were selected and then subcloned by limiting dilution. Cells were cultured at 37° C./6% CO2 in complete medium with 10% FBS and appropriate selection markers.
(§1) The day prior to performing the assay Orai1/STIM1 stable cells were plated in 50 μL of complete medium at 90-95% confluence in a 384 well plate. Cells were grown at 37° C./6% CO2 overnight. On the day of the assay, 1.5 μM fluo-4-AM (Invitrogen) in complete medium was added to the cells, which were then incubated for 1 hour at RT. Cells were washed once in Ca^2+-free HBSS (Hank's buffered saline solution) and 35 μl of Ca^2+-free HBSS was added to each well. Test compounds were added to wells in a 10 μL Ca^2+-free HBSS solution, prepared at 4.5× the desired final concentration, and incubated for 30 minutes at RT. The initial baseline fluorescence signal was then measured with a FLIPR^384 (Molecular Devices) plate reader. Calcium entry was initiated by adding 5 μl of 10× CaCl2 (10 mM) in HBSS, and changes in cellular fluorescence were measured with the FLIPR^384 plate reader. In each well, the magnitude of the fluorescence signal as a result of calcium entry into the cell was determined by calculating the difference between the peak fluorescence signal measured after calcium addition and the initial baseline fluorescence signal (designated Peak-Basal). IC50 values were typically calculated as the concentration that inhibited 50% of the Peak-Basal signal (Table A).
Usually IC50 stands for the concentration that gives 50% inhibition. As to `O=C(CCc1cccc(F)c1)Nc1scc(-c2ccc(Cl)nc2)c1C(=O)O` [G], the IC50 fell in the range of 1 to 10 µM.
Still for that read-out and setting: with `Cc1ccc(-c2csc(NC(=O)c3cc4ccccc4o3)c2C(=O)O)c2cccnc12` [L] the figure was no more than 0.5 µM; with `O=C(Nc1scc(-c2ccc3scnc3c2)c1C(=O)O)c1cc2ccccc2o1` [J], no more than 0.5 µM.
The same measure, in the same setting: next, `Cc1ccc(-c2csc(NC(=O)c3cc4ccccc4o3)c2C(=O)O)c2ccccc12` [K]: no more than 0.5 µM; `O=C(Nc1scc(-c2cnc(C(F)(F)F)nc2)c1C(=O)O)c1cc2ccccc2o1` [F]: no more than 0.5 µM.

Another assay concerns JR251 or RBL cells. Description: Store-operated calcium entry IC50 in either JR251 or RBL cells. The class given is cell-based.
Details: not given
How it is done:
as §1
(§2) The day prior to performing the assay, RBL-2H3 cells are plated in 50 μL of complete medium in a 384 well plate. Cells are grown at 37° C./6% CO2 overnight and grow to 50-60% confluence by the next day. On the assay day, 1.5 μM Fluo-4-AM dye (Invitrogen) in complete medium is added and incubated for 1 hour at RT. Cells are washed twice in Ca^2+-free HBSS buffer and 35 μL Ca^2+-free HBSS buffer is added to each well. 10 μL of a test compound prepared in a Ca^2+-free HBSS solution at 4.5× of the desired concentration is added to a well and incubated for 5 minutes at RT. 10 μL of thapsigargin prepared in a Ca^2+-free HBSS solution at 5.5× of the desired concentration (5.5 uM) is added to each well and incubated for an additional 25 minutes. The initial baseline fluorescence signal is measured with a FLIPR^384 (Molecular Devices) plate reader. 5 μL of 12× calcium in HBSS (12 mM) is added and changes in cellular fluorescence are measured with the FLIPR^384 plate reader. In each well, the change in the fluorescent signal as a function of time due to calcium entry into the cell is determined by calculating the difference between the fluorescent signal measured 7 seconds after calcium addition and the initial baseline fluorescence signal at time zero (t=0). This parameter is designated Upslope. The IC50 value is calculated as the concentration at which 50% of the Upslope is inhibited.
On to `Cc1cc(-c2csc(NC(=O)c3cccc(F)c3)c2C(=O)O)n(C)n1` [4-(1,3-dimethyl-1H-pyrazol-5-yl)-2-(3-fluorobenzamido)thiophene-3-carboxylic acid], for which the IC50 is less than 10 µM.
The same measure, in the same setting: with `Cc1nc(N2CCCCC2)ncc1-c1csc(NC(=O)c2cnccn2)c1C(=O)O` [4-(4-methyl-2-(piperidin-1-yl)pyrimidin-5-yl)-2-(pyrazine-2-carboxamido)thiophene-3-carboxylic acid] the figure was less than 10 µM; with `O=C(Nc1scc(-c2ccc(F)nc2)c1C(=O)O)c1cc2ccccc2o1` [2-(benzofuran-2-carboxamido)-4-(6-fluoropyridin-3-yl)thiophene-3-carboxylic acid], less than 10 µM.
Still for that read-out and setting: with `O=C(Nc1scc(-c2c[nH]c3ccccc23)c1C(=O)O)c1cc2ccccc2o1` [2-(benzofuran-2-carboxamido)-4-(1H-indol-3-yl)thiophene-3-carboxylic acid] the figure was less than 10 µM; with `Cc1nnsc1C(=O)Nc1scc(-c2cnccn2)c1C(=O)O` [2-(4-methyl-1,2,3-thiadiazole-5-carboxamido)-4-(pyrazin-2-yl)thiophene-3-carboxylic acid], less than 10 µM; with `O=C(Nc1scc(-c2ccc(F)nc2F)c1C(=O)O)c1cc2ccccc2o1` [2-(benzofuran-2-carboxamido)-4-(2,6-difluoropyridin-3-yl)thiophene-3-carboxylic acid], less than 10 µM.
On the same count and under the same terms, next, `Cc1ccc(-c2csc(NC(=O)c3cc4ccccc4o3)c2C(=O)O)c2cccnc12` [2-(benzofuran-2-carboxamido)-4-(8-methylquinolin-5-yl)thiophene-3-carboxylic acid]: less than 10 µM; `O=C(Nc1scc(-c2cccs2)c1C(=O)O)c1ccc(F)cc1` [5′-(4-fluorobenzamido)-2,3′-bithiophene-4′-carboxylic acid]: less than 10 µM; `COc1cccc2cc(-c3csc(NC(=O)c4cc5ccccc5o4)c3C(=O)O)[nH]c12` [2-(benzofuran-2-carboxamido)-4-(7-methoxy-1H-indol-2-yl)thiophene-3-carboxylic acid]: less than 10 µM.

The next assay has as its system RBL-2H3 cells. The assay is described as follows: Fluorescence-based assay of store-operated calcium entry in RBL-2H3 cells. Format: cell-based. As to conditions: Rattus norvegicus, thapsigargin, 50% inhibition of Upslope. How it is done:
B. Fluorescence-Based Assay of Store-Operated Calcium Entry in RBL-2H3 Cells.
RBL-2H3 cells were obtained from ATCC and maintained in complete medium with 10% FBS at 37° C./6% CO2.
as §2
In the case of `Cc1csc(-c2csc(NC(=O)c3cccc(F)c3)c2C(=O)O)n1` [C], the IC50 fell in the range of 1 to 10 µM.
Still for that read-out and setting: next, `O=C(Nc1scc(-c2c[nH]c3ccccc23)c1C(=O)O)c1cccc(F)c1` [H]: 1 to 10 µM; `O=C(Nc1scc(-c2nc3ccccc3n2C(F)F)c1C(=O)O)c1cc2ccccc2o1` [Compound I]: 1 to 10 µM; `COc1ccc(-c2csc(NC(=O)c3cc4ccccc4o3)c2C(=O)O)cn1` [E]: 1 to 10 µM.
The same measure, in the same setting: with `Cc1ccc(-c2csc(NC(=O)c3cccc(F)c3)c2C(=O)O)s1` [A] the figure was 1 to 10 µM; with `Cc1ccc(-c2csc(NC(=O)c3cc4ccccc4o3)c2C(=O)O)c2cccnc12` [L], no more than 0.5 µM.
Turning to `O=C(Nc1scc(-c2ccc3scnc3c2)c1C(=O)O)c1cc2ccccc2o1` [J], the IC50 was no more than 0.5 µM.
Turning to `O=C(Nc1scc(-c2ccc(Cl)s2)c1C(=O)O)c1cc2ccccc2o1` [B], the IC50 is no more than 0.5 µM.
On the same count and under the same terms, next, `Cc1ccc(-c2csc(NC(=O)c3cc4ccccc4o3)c2C(=O)O)c2ccccc12` [K]: 1 to 10 µM; `COc1ccc(-c2csc(NC(=O)c3cccc(F)c3)c2C(=O)O)cn1` [D]: 1 to 10 µM; `O=C(Nc1scc(-c2cnc(C(F)(F)F)nc2)c1C(=O)O)c1cc2ccccc2o1` [F]: no more than 0.5 µM.

The test system of another assay is Jurkat cells.
Assay: not given
To be noted: Jurkat cells and colon cancer cells; cited from earlier work.
Take `Cc1nnsc1C(=O)Nc1ccc(-n2nc(C(F)(F)F)cc2C(F)(F)F)cc1` [BTP-2]: the “inhibition of SOCE” value is “inhibits” and the inhibition of proliferation entry is recorded as “inhibits”.
